Data set [1] in a line: Ivermectin content of dog blood after ad libitum feeding of ivermectin-containing dog food (HPLC). The format is in vivo. Conditions: female mixed breed dog about 10 kg; Example 2 feed (approx. 1121.1 μg ivermectin/kg db) ad libitum; blood drawn four hours after eating, day 7 and seven days later. As for the experimental part:
The dog food from this run was fed ad libitum to an intact female mixed breed dog weighing about 10 kg. On day 7, blood was drawn from the dog four hours after eating and stored in an anti-coagulant tube with calcium EDTA in a refrigerator. Seven days later, the same dog was again fed the ivermectin-containing feed ad libitum and blood was collected four hours post-feeding. This sample was also refrigerated in the same fashion as the first sample.
The blood samples were then analyzed to determine the content of ivermectin therein, using HPLC. The procedure used was described in Diclidnson, Journal of Chromatography, 58:250-257 (1990). In this procedure, 0.5 ml of each blood sample was purified using solid phase extraction (SPE) cartridges and dissolved in a small volume of mobile phase for injection onto the HPLC column. The method has a limit of detection of about 2 ng/ml and uses an internal standard. After preparation of the internal standard, a standard curve is constructed using ivermectin-spiked blood samples. A known 1% ivermectin sample was used as the primary standard.
The blood samples from the dog were then analyzed for ivermectin content with HPLC peak heights corrected using the internal standard.

A short description of data set [2]: Storage stability of ivermectin in extruded dog food (HPLC content, frozen versus ambient). The format is physicochemical. As for the experimental part:
Following this treatment, the product was dried to a moisture level of less than 10% by weight. Three samples from the dryer were subsequently frozen and another […] placed in a plastic bag and stored at room temperature, for a period in excess of six months.
The products resulting from this test were analyzed to determine the content of ivermectin in the samples. In this analysis, each feed sample was ground in a Retsch mill at low speed using a 2 mm grating screen, so that the ground material would pass through a #10 mesh screen. A total of six samples, three frozen and three stored at room temperature, were processed. In each case, three 37.5 g of a sample was placed in a 250 ml bottle and 100 ml of methanol was added. The bottle was capped, the sample was sonicated for 20 minutes and shaken for 1 hour. 40 ml of the extract was added to a centrifuge tube and centrifuged for 5 minutes at 2000 rpm. 20 ml of the supernatant solution was then passed through a alumina column. The first five ml was rejected and the remainder of the liquid through the column was collected as a purified sample. 2 ml of the purified sample was mixed with a 5 ml mixture of acetonitrile:water (1:1), and a solid phase extraction (SPE) was performed in accordance with the procedure described in Doherty et al., Analytical Chemists International, 81:869(4) (1998). […]

These results are taken from patent US20040234580A1, “Animal feeds including actives and methods of using the same” (priority 2001, published 2004).

With Ivermectin, the “ivermectin in dog blood samples” value in data set [1] is 5 to 8 ng/mL. The “average ivermectin content of the three frozen and the ambient-stored samples” value in data set [2] (co-extruded pillow dog food of Example 1, stored frozen or at room temperature in excess of six months, expected content 0.42 μg/kg, HPLC) amounted to 0.43 µg/kg. In addition, in data set [2] (dog food of Example 1, frozen versus room temperature in excess of six months), the “effect of storage conditions (frozen versus ambient) upon ivermectin potency” value is on record as “little effect”.
